89 compounds from a melting point compilation (Tetko et al.; mined from patent text by program, amines drawn as free bases though some values may be those of a salt) can be followed below.

Each structure is given as a SMILES string. A value given as a limit tells only on which side of the number the result lay.

Consider `O=C(O)CC[C@H](NCC(O)C(O)C(O)C(O)C(=O)O)C(=O)O` (some centres undefined), for which the melting point (as a rule, the temperature, or range, at which the solid turns liquid) turned out to be 90 °C. `COc1ccc(/C=C/C(=O)N[C@@H]2N=C(c3ccccc3)c3ccccc3N(C)C2=O)cc1` gave a melting point of 129 to 133 °C. Regarding `O=Cc1cc(O)c(O)c(C=O)c1CCC(=O)O`, the melting point lay in the range of 160 to 162 °C. As to `COC(=O)C1=CC(NC(=O)OC(C)(C)C)CO1` (centres undefined), the melting point fell in the range of 94 to 96 °C.

Turning to `O=C(O)CON=Cc1ccc(Cl)cc1`, the melting point is 121 to 123 °C. Take `O=C1Cc2c(cccc2OCC2CO2)N1` (centres undefined): the melting point fell in the range of 164 to 166 °C.

As for `CCC(=CC=C(C#N)C#N)NCCO`, the melting point is 88 to 90 °C. As for `COC1=CC23CCN(C)C(Cc4ccc(OC)c(Oc5ccccc5)c42)C3=CC1C` (centres undefined), the figure is 177 to 178 °C. Turning to `NNC(=C[N+](=O)[O-])NCc1ccc(Cl)nc1`, the melting point was in the range of 188 to 190 °C. `COc1cc(OC)cc(-c2ncn(-c3ccc(C(F)(F)F)cc3)c2-c2ccc(OC)c(O)c2)c1` came in with a melting point of 111 to 113 °C.

The compound `O=C(NCCN(C1CC1)S(=O)(=O)c1ccccc1[N+](=O)[O-])N1CCN2C(=O)OC(c3cccc(F)c3)(c3cccc(F)c3)C2C1` (centres undefined) registered a melting point of 203 °C. In the case of `OC1CCN(Cc2ccc(Br)cc2)CC1N1CCC(c2ccccc2)CC1` (centres undefined), the melting point lay within 159 to 161 °C.

In the case of `Nc1cc(C(=O)NCC(=O)O)ccc1F`, the melting point fell in the range of 150 to 152 °C. `CCCCCCCCCCCC1Nc2ccccc2-c2c([N+](=O)[O-])cnn21` (centres undefined) displayed a melting point of 92 to 93 °C. Turning to `CN(C(=O)C(F)(F)F)C1(C)CN(c2c(F)cc3c(=O)c(C(=O)O)cn(C4CC4)c3c2F)C1`, the melting point lay within 291 to 294 °C.

`CC(C)(C)Nc1c(NCc2ccccc2C(F)(F)F)c(=O)c1=O` showed a melting point of 237 to 239 °C. With `CC(C(=O)N1c2ccccc2C(=O)N(C)c2cccnc21)N1CCN(C)CC1` (centres undefined), the melting point is 206 to 208 °C. For `Fc1nccc(I)c1CCCCl`, the melting point lay in the range of 24 to 25 °C. With `O=C(O)c1ccc(OC(F)F)c(OC2CCCC2)c1`, the melting point was in the range of 126 to 128 °C. The same measure for `NCCCn1c(-c2ccc(-c3ccccc3)cc2)csc1=Nc1ccccc1`: 50 to 54 °C. As to `CC(C)(C)OC(=O)NS(=O)(=O)N1CCC(F)(F)CC1`, the melting point was 82 to 83 °C. The compound `Cc1cc(C)nc(-c2ccc(CN3CCN(c4ccc(O)cc4)CC3)cc2)n1` gave a melting point of 165 to 167 °C. Take `OC(Cc1nnccc1-c1c(-c2ccccc2)nn2ccccc12)C(Cl)(Cl)Cl` (centres undefined): the melting point is 206 to 207 °C. For the compound `O=C(Cc1c(Cl)c(F)nc(F)c1Cl)OCc1ccccc1`, the melting point was in the range of 98 to 101 °C. `N=C(Nc1ccc(CCN)cc1)c1cccs1` had a melting point of 134 to 137 °C.

Compound `N#Cc1cnn2c1N(C(=O)CN1CCC(c3ccccc3)CC1)CC=C2c1cc(Cl)ccc1Cl` showed a melting point of 199 to 200 °C. In turn, `CON=C(C1=C(O)C(=O)N(c2ncc(S(=O)(=O)c3ccc([N+](=O)[O-])cc3)s2)C1c1ccc(C(C)C)cc1)c1ccc(C)cc1` (centres undefined) had a melting point of 156 °C. For `O=C(c1cc(-c2ccc(F)cc2)c(-c2ccc(F)cc2)s1)C(F)(F)F`, the melting point fell in the range of 120 to 122 °C. As for `COC(=O)COC(=O)C(C)c1ccc2cc(O)ccc2c1` (centres undefined), the figure is 84.5 to 87 °C; as for `CSc1ccc2c(c1)C(=O)c1cc3ccccc3cc1C2=O`, 195 to 196 °C.

`CN(C(=O)c1cnn(C)c1C(=O)Nc1ccn2nc(N3CCOCC3)nc2c1)C1CC1` gave a melting point of 172 to 175 °C. For the compound `Fc1cccc(Cl)c1CNc1ncnc2nsnc12`, the melting point was in the range of 224 to 226 °C. As for `CC(=O)N1C(C)(C)CN(CCN2CC(C)(C)N(C(C)=O)C(C)(C)C2=O)C(=O)C1(C)C`, the melting point lay within 180 to 183 °C. `Cc1ccc(S(=O)(=O)N2CCC(c3ccc(CCCCC(=O)O)cc3)CC2)cc1` registered a melting point of 164 to 170 °C. Regarding `CC(C)c1ccc(S(=O)(=O)Nc2ncc(C(F)(F)F)cc2I)cc1`, the melting point came to 124 °C. The same measure for `CON=Cc1cc(N=c2sc(=S)n3n2CCCC3)c(F)cc1Cl`: 128 to 133 °C; for `CC(=O)Nc1ccc(S(=O)CC(=O)C23CC4CC(CC(C4)C2)C3)cc1` (centres undefined): 174 to 176 °C; for `CN1CCNCC(NC(=O)c2n[nH]c3ccccc23)C1` (centres undefined): 163 to 166 °C. The same measure for `N#CCCn1cc(-c2cccc(Cl)c2Cl)c(C(F)(F)F)c1`: 83 to 85 °C. The compound `COc1cc(C2(O)NC(=O)c3cc(OCc4ccccc4)ccc32)cc(OC)c1OC` (centres undefined) had a melting point of 187 to 189 °C. As for `N#Cc1nc(-c2cnn(-c3c(Cl)cc(C(F)(F)F)cc3Cl)c2Br)[nH]c1C#N`, the figure is 167 to 170 °C; as for `CSC(=NC(C)=O)Nc1c(Cl)cccc1Cl`, 137 to 140 °C; as for `CCCCc1ncc(CCC(=O)O)n1Cc1ccccc1Cl`, 164 °C. On to `Cc1cc(CC(C)(C)C=O)cc(C)c1O`, for which the melting point lay within 72 to 73 °C. As for `COC(=O)C1=C(C)NC(C#N)=C(C(=O)OC)C1c1cccc([N+](=O)[O-])c1` (centres undefined), the figure is 206 to 207 °C; as for `CC(C)CNc1c([N+](=O)[O-])c2nnnn2c2ccccc12`, 152 to 154 °C; as for `C#Cc1cccc(Nc2ncnc3cnc(NCc4ccc(OC)cc4)cc23)c1`, 200 to 203 °C. `COCCOCOc1c(C(C)(C)C)cc(-c2n[nH]c(=S)s2)cc1C(C)(C)C` showed a melting point of 134 to 135 °C. In the case of `O=C1CCCOc2ccc(OCc3ccccc3)cc21`, the melting point lay in the range of 62 to 63 °C. For `CC(C)(C)Nc1nccc(C#Cc2ccc(F)cc2)n1`, the melting point was 97 to 99 °C. In the case of `CS(=O)(=O)c1ccc(C(=O)Nc2ccc(Cl)c(-c3ccc(OCCCCCCC(=O)NO)cn3)c2)c(Cl)c1`, the melting point is 140 to 145 °C. Turning to `COc1ccc(Cn2c(=O)n([C@H]3CC[C@H](O)CC3)c3ccc(C(N)=O)cc32)cc1Cl`, the melting point was found to be 292 °C. `COC1(c2cc(F)cc(Oc3nc(-c4ccccc4)c(-c4ccc(S(N)(=O)=O)cc4)o3)c2)CCOCC1`: the melting point fell in the range of 159 to 161 °C.

In turn, `Cc1c(Nc2c(C#N)cnc3sc(-c4ccc(OCCN(C)C)cc4)cc23)ccc2[nH]ccc12` had a melting point of 182 to 184 °C.

`Cn1nc(C(F)(F)F)c(CS(=O)(=O)C2=NOC(C)(C)C2)c1OC(F)F`: the melting point lay within 129 to 130 °C.

For the compound `CC(C)COC(=O)N=C(N=C1NC(=O)C(=O)N1c1ccc(Cl)c(Cl)c1)NC(C)C`, the melting point turned out to be 260 °C. Compound `CCCCSc1c(N)cc(C(=O)O)cc1S(N)(=O)=O` came in with a melting point of 223 to 224 °C. `COc1cccc(CCCCCCOc2ccc(C(=O)O)c(O)c2)c1OC`: the melting point was in the range of 115 to 116 °C. As for `CN(C)C(=O)c1cncc([N+](=O)[O-])c1`, the figure is 65 °C; as for `Cc1ccnc2c1nc(CO)n2C`, greater than 300 °C; as for `CC(=O)N1CCN(c2ccc(N)c(C)c2)CC1`, 126 to 129 °C. In turn, `CCOC(=O)c1cn(-c2nc(NC(C)(C)C)c(F)cc2F)c2c(Cl)c(F)c(F)c([N+](=O)[O-])c2c1=O` returned a melting point of 215 to 217 °C. As for `Clc1cc(Cl)n2c(-c3ccccc3)nc(Cl)c2n1`, the figure is 133 to 134 °C; as for `CCOC(Cc1ccc2oc(Cc3nc(-c4ccccc4)oc3C)cc2c1)C(N)=O` (centres undefined), 165 to 168 °C; as for `Cc1ccc(Oc2c(F)cc(C(F)(F)F)cc2Cl)cc1[N+](=O)[O-]`, 113 to 115 °C. In the case of `CC(=O)N(O)C(C)c1cc(C(C)(C)C)c(O)c(C(C)(C)C)c1` (centres undefined), the melting point lay in the range of 153 to 154 °C. Consider `CCOC(=O)CNc1ncccc1NC(=O)c1ccc(Cl)c(Cl)c1`, for which the melting point fell in the range of 137 to 138 °C. In turn, `CC(=CCO)c1ccc(C2CCCCCCC2)cc1` had a melting point of 40 to 44 °C.

`CCN(CC)c1ccc(-n2c(C(F)(F)F)nn(C)c2=S)c(Cl)c1` had a melting point of 108 to 110 °C. The compound `O=c1c2cc3ccccc3cc2oc2cc(OCC3CO3)cc(OCC3CO3)c12` (centres undefined) had a melting point of 181 to 182 °C. `CC(C)(C)OC(=O)NNc1ccc(N)cc1`: the melting point stood at 128 °C. In the case of `CCCCCCCCCCCCc1c2c(=O)c3cc(Br)ccc3c2c(CCCCCCCCCCCC)c2c(=O)c3cc(Br)ccc3c12`, the melting point lay in the range of 122 to 123 °C. As for `O=C(O)CCCCCCCc1nc(-c2ccccc2)c(-c2ccccc2)o1`, the melting point lay within 82 to 83 °C. Compound `CCC(=O)Nc1ccnn1-c1c(Cl)cc(Cl)cc1Cl` came in with a melting point of 125 °C. The same measure for `CS(=O)(=O)c1snc(OCC#CI)c1C#N`: 191 to 192 °C; for `CC(C)(C)OCCCNC(=O)c1n[nH]cc1NC(=O)c1ccccn1`: 193 to 194 °C. The same measure for `OC(Cn1cncn1)(CC(Cl)(Cl)Cl)c1cc(Cl)cc(Cl)c1` (centres undefined): 186 °C; for `CC1(C2CCCC2)Cc2cc(OCCCC(=O)O)c(Cl)c(Cl)c2C1=O` (centres undefined): 154 °C; for `CSc1ncc2c(n1)N(c1ccccc1)C(=O)N(c1ccccc1Cl)C2`: 79.5 to 82.4 °C. In the case of `COC(=O)c1csc(C)c1S(=O)(=O)NC(=O)Nc1nc(C)nc(OC)n1`, the melting point came to 195 °C. On to `CN1CC2CC(=NO)c3cccc4c3N2C(C1)c1ccccc1C4` (centres undefined), for which the melting point lay in the range of 209 to 210 °C.

As to `C[C@H](CSC(=O)c1ccccc1)C(=O)N1C(=O)N(Cc2ccccc2)C[C@H]1C(=O)O`, the melting point came out at 145 °C.

`CCOC(=O)C(C)(C)c1ccc2c(c1)N(CC(C)N(C)C)c1ccccc1S2` (centres undefined) yielded a melting point of 107 to 110 °C. The compound `COc1cc(OC)nc(NC(=O)NS(=O)(=O)c2ccccc2OC(F)(F)F)n1` registered a melting point of 170 °C. Compound `COC(=O)c1ccc2oc3c(c(=O)c2c1)CCC3=Cc1cccc(C)n1` came in with a melting point of 200 to 202 °C. The compound `CC(=O)c1ccc2cc(N3CCN(C(=O)OC(C)(C)C)CC3)ccc2c1` registered a melting point of 153 to 154 °C.

Compound `C[C@H]1C[C@@](O)(c2csc(S(=O)(=O)c3ccc4c(c3)CCC(=O)N4C)c2)CCO1` displayed a melting point of 64 to 66 °C. Compound `Cn1cc(Br)cc(Nc2ccn(C3CC3)n2)c1=O` yielded a melting point of 161 to 163 °C.

`NC(=O)c1c(N)sc(-c2ccc(F)cc2)c1-c1ccccc1` yielded a melting point of 205 to 207 °C.
